Laboratory results reported in publication doi:10.1101/2023.11.15.567208 (bioRxiv, 2024).
Entries after “also recorded” stand apart in the source; their conditions may differ. Blank lines part the entries; values can stand above or below the compound they belong to.

Key:
[1] = 0.6% acetic acid, 10 μl per gram, intraperitoneal; writhes in 15 min starting 5 min after injection; WT n=9, DKO n=7
Protocol: Mice were habituated on a plexiglass stand for 1 hour. 0.6% of acetic acid was injected intraperitoneally at a dose of 10 μl per gram weight of the animal. Mice were videotaped for 20 minutes. The number of writhes was quantified post-hoc by a blinded observer during a 15-minute interval between 5 and 20 minutes after injection.

[2] = Acetone evoked cold response; assay type: in vivo, mouse; conditions: acetone droplet on paw; time licking in 60 s; WT n=12, DKO n=12
Protocol: Mice were habituated on a plexiglass floor stand for 1 hour. Mice were videotaped as acetone was applied to the plantar region of their hind paw. Acetone was applied using a custom-made applicator, consisting of a 1ml syringe and plastic well where acetone was pushed out to generate a droplet for applying to the paw. Behavior was scored post-hoc by a blinded observer and the total amount of time spent licking the paw in a 60 second time interval was recorded. The experiment was repeated for a second trial and average scores were used.

[3] = Inflammatory pain model, Hargreaves radiant heat; assay type: in vivo, mouse; conditions: PGE2 20 μl, 500 nM intraplantar
Protocol: The radiant heat stimulus was aimed for the centre of the plantar region of the mouse’s hind paw. The active intensity of the low stimulus was 40 intensity units, and of the high stimulus 55. The response latency was recorded for 5 trials with 10-minute breaks in between each trial.
CFA and PGE2 was purchased from Sigma. 20 μl of CFA was injected into the heel of the hind paw. PGE2 (20 μl, 500 nM) was injected into the plantar surface of the hindpaw, and behavior was assessed over the same time-frame that produces in vivo sensitization of nociceptor responses (up to 120 minutes). Inflammation-induced hypersensitivity was measured using the Hargreaves and the von Frey, as described above.

[4] = Hindpaw swelling / oedema, paw volume; assay type: in vivo, mouse; conditions: for Swelling of the hindpaw: hindpaw of DKO mice compared with WT, observation on injection; for Paw oedema (paw volume): intraplantar injection, volume normalized to uninjected paw, capsaicin WT n=9, DKO n=7, AITC n=8 each
Protocol: (§1) Mice were anesthetized using isoflurane. 200 μl of Evans Blue dye was injected into the mouse’s tail vein. 15 mins later, one hindpaw was injected with an algogen. After a further 30 mins, the volume of each paw was measured by displacement using a plethysmometer (Ugo Basile). Both paws were then cut at the ankle and placed in tubes in the oven at 55 °C for 24 hours to dry. 1 ml of formamide was then added to each paw and incubated for 4–6 days at 55 °C to extract the dye from the paw tissue. 50 μl samples of dye-infused formamide from each paw were then dispensed to a 96 well plate in duplicate, along with a range of Evans blue dilutions in formamide to generate a standard curve. The optical density of each sample was then measured using a plate-reader, and the concentration of Evans Blue per paw sample interpolated from the standard curve to generate an index of extravasation in that paw.

[5] = Chloroquine-induced itch, scratching bouts; assay type: in vivo, mouse; conditions: 20 μl of 25 μM chloroquine diphosphate intradermal, nape of neck; scratching bouts in 15 min; WT n=8, DKO n=11
Protocol: Hair from the nape of the mouse’s neck was removed 2–3 days prior to behavioral experiments using VEET hair removal cream and the area thoroughly washed and moisturizing cream applied. Mice were habituated to transparent acrylic chambers (10cm × 10cm × 13cm) 30 minutes prior to injection. Post habituation, a blinded investigator injected 20 μl of 25 μM Chloroquine diphosphate salt (Sigma-Aldrich: C6628) solution in 0.9% saline intradermally into the nape of the neck using a 31G insulin syringe. Videos were quantified by a separate blinded investigator with a scratching bout counted each time the mouse attended to the injected area with the hind paw after the paw was removed from the floor or mouth.

[6] = Plasma extravasation, Evans blue dye; assay type: in vivo, mouse; conditions: Evans blue optical density, normalized to uninjected paw; capsaicin WT n=9, DKO n=7; AITC n=8 each
Protocol: as §1

[7] = Chemical algogens, licking behavior after intraplantar injection; assay type: in vivo, mouse; conditions: 20 μl intraplantar, time licking in 5 min
Protocol: 0.3% capsaicin in 80% saline / 10% Tween-80 / 10% ethanol or 1% AITC in saline was injected into the plantar surface of the hind paw. The injected volume for both was 20 μl. Mice were video-taped for 5 minutes. A blinded observer scored the amount of time in seconds the mouse spent licking the injected paw in a 5-minute time period.

[8] = ref MacDonald et al., 2021; cited from earlier work
From the text: Lastly, we investigated how dual peptide deletion affected the development of allodynia symptoms, where innocuous stimuli are perceived as painful, in two mouse models of neuropathic pain ([Jensen and Finnerup, 2014]).

[9] = Oxaliplatin cold allodynia, Cold Plate; assay type: in vivo, mouse; conditions: one day after intraplantar oxaliplatin; Cold Plate 10 °C, 5 min; WT n=9, DKO n=6
From the text: The plate was set to the desired temperature. A camera set up with a mirror was used for better visibility of the mouse on the hot plate. A clear cylindrical tube was placed around the hot plate to ensure the mouse cannot escape. Once the hot plate reached the set temperature, the mouse was placed on the hot plate and the top of the cylinder was covered. At the cut-off time, the mouse was taken off the hot plate and placed back in the cage. The latency to lick was scored post-hoc using the recorded videos by a blinded observer.
Chemotherapy-induced neuropathy was induced in mice by intraplantar injection of oxaliplatin into the left hind paw ([Deuis et al., 2013]; [MacDonald et al., 2021]). Oxaliplatin was made up to a dose of 80 μg in 40 μl of 5% glucose solution, due to its instability in chloride-containing saline solution. The number of nocifensive behaviors in 5 mins was assessed on the Cold Plate held at 10 °C 24 hours later.

[10] = test system: dorsal horn network activation; experiment: Capsaicin-evoked dorsal horn Fos staining; assay type: in vivo; conditions: capsaicin 0.3% into right hindpaw; WT n=5, DKO n=4; mean Fos puncta of 5 sections per mouse
[11] = target: T1, CGRP receptor (Calcrl and Ramp1) (Mus musculus, UniProt Q9R1W5+Q9WTJ5); experiment: Co-culture of DRG neurons with CGRP-sniffer cells, capsaicin-evoked CGRPα release; assay type: cell-based; conditions: capsaicin 10 μM, n=18 wells from 3 mice
T1 construct: expressed in transfected cells; host or cells: HEK293; Calcrl/Gα15/GCaMP6s by PiggyBac transposase (puromycin), Ramp1 by pSBbi-Neo-cmv-TETo2-RAMP1 IRES-mTagBFP2-NLS (geneticin); doxycycline-induced
T1 sequence (Q9R1W5 23-463): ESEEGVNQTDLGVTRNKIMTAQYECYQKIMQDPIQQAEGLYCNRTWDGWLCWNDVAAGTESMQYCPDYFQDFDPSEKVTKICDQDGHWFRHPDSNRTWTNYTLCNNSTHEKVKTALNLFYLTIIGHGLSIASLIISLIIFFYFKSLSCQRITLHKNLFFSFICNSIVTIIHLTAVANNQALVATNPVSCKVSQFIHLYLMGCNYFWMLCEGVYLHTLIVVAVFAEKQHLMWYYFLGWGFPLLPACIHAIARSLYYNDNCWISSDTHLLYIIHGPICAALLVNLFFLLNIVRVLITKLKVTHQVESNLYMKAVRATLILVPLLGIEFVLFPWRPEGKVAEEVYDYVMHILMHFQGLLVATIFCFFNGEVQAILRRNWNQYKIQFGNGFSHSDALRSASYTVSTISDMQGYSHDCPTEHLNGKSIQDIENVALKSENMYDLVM
T1 sequence (Q9WTJ5 27-148): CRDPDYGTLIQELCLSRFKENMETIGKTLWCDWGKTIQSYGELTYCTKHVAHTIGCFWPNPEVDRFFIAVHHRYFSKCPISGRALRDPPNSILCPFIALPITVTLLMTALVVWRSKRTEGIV

[12] = target: T2, Substance P receptor (NKR1) (Mus musculus, UniProt P30548); experiment: Co-culture of DRG neurons with Substance P-sniffer cells, capsaicin-evoked Substance P release; assay type: cell-based; conditions: capsaicin 10 μM, n=12 wells from 2 mice; for Substance P-sniffer GCaMP response, WT DRG: co-culture with WT (control) DRG neurons
T2 construct: T2A self-cleaving peptide remnant (from the polycistronic P2A-TACR1-T2A cassette) (C); expressed in transfected cells; host or cells: Flp-In T-REx HEK293 (Thermo Fisher Scientific, R78007), lentiviral transduction, hygromycin selection
T2 sequence (P30548 whole entry): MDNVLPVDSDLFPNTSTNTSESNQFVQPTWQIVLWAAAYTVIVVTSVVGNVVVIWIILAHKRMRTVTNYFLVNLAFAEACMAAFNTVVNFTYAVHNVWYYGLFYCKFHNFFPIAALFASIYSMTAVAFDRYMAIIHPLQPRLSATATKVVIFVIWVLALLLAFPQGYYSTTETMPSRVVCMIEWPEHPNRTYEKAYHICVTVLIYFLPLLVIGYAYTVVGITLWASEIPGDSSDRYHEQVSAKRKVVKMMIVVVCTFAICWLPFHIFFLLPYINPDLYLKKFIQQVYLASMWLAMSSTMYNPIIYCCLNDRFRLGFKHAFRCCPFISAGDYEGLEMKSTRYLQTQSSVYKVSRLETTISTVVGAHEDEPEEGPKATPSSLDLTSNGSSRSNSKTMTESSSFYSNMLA

[13] = LiCl conditioned taste aversion; assay type: in vivo, mouse; conditions: lithium chloride 200 mg/kg injection paired with 15 mM saccharin; WT n=7, DKO n=6
Protocol: Mice were single-housed and habituated for 3 days to drink from two glass bottles with stainless-steel ball-bearing spouts. Mice then received 3 days of training, where they were water-deprived for 22 hours followed by 30 mins exposure to a single water-containing bottle, then 90 mins exposure to both bottles. On the conditioning day, after 22 hours of water deprivation, mice were exposed to a single bottle containing saccharin water (15 mM) for 45 mins. Mice were then injected with lithium chloride (200 mg/kg) or PBS, and then given ordinary water for 75 mins. The animals were then water deprived for a further 22 hours. On the test day, mice were simultaneously exposed to a bottle containing water and a bottle containing saccharin for 45 mins. The volume of each solution consumed was measured by weighing the bottles before and after. To calculate the saccharin preference index of each animal, the volume of saccharin consumed was divided by the total of fluid consumed, with a value less than 0.5 indicating the development of an aversion to saccharin. […]
bioRxiv preprint doi: https://doi.org/10.1101/2023.11.15.567208; this version posted December 2, 2024. […]
Figure 2 – f igure supplement 2. Tac1::Calca DKO mice develop LiCl-induced conditioned taste aversion (A) Quantification of conditioned taste aversion (CT A) test in W T (blue ) and DKO (red) mice. […]

SMILES: CC(=O)O [acetic acid]
Writhing behavior [1]: comparable writhing behavior in both WT and DKO mice

SMILES: CC(C)=O [acetone]
Cold response evoked by acetone [2]: the same between groups

SMILES: CCCCC[C@H](O)/C=C/[C@H]1[C@H](O)CC(=O)[C@@H]1C/C=C\CCCC(=O)O [PGE2, Prostaglandin E2]
WT vs DKO difference in Hargreaves latency after PGE2, post-hoc ([3]; post-hoc Sidak's test, WT n=10, DKO n=10): only the 120 min time-point shows a significant difference (p=0.025) | Heat and mechanical hypersensitivity, PGE2 ([3]; up to 120 min, Hargreaves (n=10 each) and von Frey (n=6 each)): short-lasting heat and mechanical hypersensitivity to a similar extent in both WT and DKO mice | Swelling of the hindpaw [4]: provoked swelling of the hindpaw of DKO mice to a similar extent as WT mice

SMILES: CCN(CC)CCCC(C)Nc1ccnc2cc(Cl)ccc12 (centres unmarked) [chloroquine]
Scratching [5]: DKO mice scratched robustly following intradermal chloroquine injection, a response indistinguishable from WT animals

SMILES: C=CCN=C=S [AITC, allyl isothiocyanate]
Swelling of the hindpaw [4]: provoked swelling of the hindpaw of DKO mice to a similar extent as WT mice | Paw oedema (paw volume) [4]: both WT and DKO mice show paw swelling | Plasma extravasation [6]: both WT and DKO mice show paw swelling and plasma extravasation | Licking behavior, AITC ([7]; 1% AITC in saline, WT n=12, DKO n=12): evoked similar licking behavior to capsaicin that was unaffected by peptide deletion

SMILES: O=C1[O][Pt]2([NH][C@@H]3CCCC[C@H]3[NH]2)[O]C1=O [oxaliplatin]
Cold allodynia (literature) [8]: evokes extreme cold allodynia | Cold allodynia, pain-like behaviors [9]: pronounced pain-like behaviors

CGRP-sniffer calcium response, WT DRG [11]: strong increases in calcium | Substance P-sniffer GCaMP response, DKO DRG ([12]; co-culture with DKO DRG neurons): no Substance P-sniffer cell responses | Substance P-sniffer GCaMP response, WT DRG [12]: robust GCaMP responses
SMILES: COc1cc(CNC(=O)CCCC/C=C/C(C)C)ccc1O [capsaicin]
Dorsal horn Fos expression, capsaicin-evoked [10]: No differences in dorsal horn Fos expression were observed | CGRP-sniffer calcium response, WT DRG ([11]; listed as Capsaicin): increase in CGRP-sniffer GCaMP6s fluorescence | Substance P-sniffer GCaMP response, WT DRG ([12]; listed as Capsaicin): increase in Substance P-sniffer GCaMP6s fluorescence | Swelling of the hindpaw [4]: provoked swelling of the hindpaw of DKO mice to a similar extent as WT mice | Paw oedema (paw volume) [4]: both WT and DKO mice show paw swelling; also recorded: no appreciable differences in capsaicin-induced swelling between WT and DKO mice | Plasma extravasation [6]: both WT and DKO mice show paw swelling and plasma extravasation; also recorded: plasma extravasation was intact in DKO mice | Licking behavior, capsaicin ([7]; 0.3% capsaicin, WT n=9, DKO n=8): evoked coping-like licking responses in both genotypes, however responses were variable and although decreased licking was observed in some DKO mice, differences did not reach statistical significance

SMILES: [Cl-].[Li+] [LiCl, lithium chloride]
Conditioned taste aversion (saccharin preference) [13]: pr onoun ced; also recorded: strong and indistinguishable conditioned taste aversion in both WT and DKO mice
